Data published in patent publication US10471118B2, “Retinylamine derivitives for treatment of ocular disorders” (CASE WESTERN RESERVE UNIVERSITY, priority 2014, dated 2019).
“Also recorded” adds a separate entry of the source.

Key:
[1] = tested on: Abca4^−/−Rdh8^−/− mice; assay: Light-induced retinal degeneration in Abca4-/-Rdh8-/- mice (OCT, ERG, histology), Example 1; type: in vivo, mouse; conditions: 0.875 μmol per mouse oral gavage 16 h before 10,000 lux 1 h, OCT after 3 days in dark
Procedure: Abca4^−/−Rdh8^−/− double knockout mice were housed in the animal facility at the School of Medicine, Case Western Reserve University, where they were maintained under either complete darkness or a 12-h light (−10 1×) and 12-h dark cycle. All retinylamine tested were dissolved or suspended in 100 μl of vegetable oil with less than 10% (v/v) DMSO and were administered by oral gavage with a 22-gauge feeding needle. Experimental manipulations in the dark were done under dim red light transmitted through a Kodak No. 1 safelight filter (transmittance >560 nm). All animal procedures and experiments were approved by the Case Western Reserve University Animal Care Committees and conformed to recommendations of the American Veterinary Medical Association Panel on Euthanasia and the Association of Research for Vision and Ophthalmology.
After dark adaptation for 48 h, one or two Abca4^−/−Rdh8^−/− mice with pupils dilated by 1% tropicamide were exposed to fluorescent light (10,000 1×; 150-W spiral lamp, Commercial Electric) for 60 min in a white plastic bucket (Papersmith) with food and water and then kept in the dark. Histological and biochemical experiments were performed 3 days after exposure.
Ultra-high resolution spectral-domain OCT (SD-OCT; Bioptigen) and Heidelberg Retinal Angiograph II SLO (Heidelberg Engineering) were used for in vivo imaging of mouse retinas. Mice were anesthetized by intraperitoneal injection of a cocktail (20 μl g-1 body weight) containing ketamine (6 mg ml-1) and xylazine (0.44 mg ml-1) in 10 mM sodium phosphate, pH 7.2, and 100 mM NaCl. Pupils were dilated with 1% tropicamide. Four pictures acquired in the B-scan mode were used to construct each final averaged SD-OCT image.
All ERG procedures were performed by published methods. For single-flash recording, the duration of white-light flash stimuli (from 20 μs to 1 ms) was adjusted to provide a range of illumination intensities (from −3.7 to 1.6 log cd s m-2). Three to five recordings were made at sufficient intervals between flash stimuli (from 3 s to 1 min) to allow recovery from any photobleaching effects.
Mouse eyes were fixed for 24 h by rocking in a fixation solution (2 ml/eye) containing 4% paraformaldehyde and 1% glutaraldehyde in PBS. The tissue was processed through a series of ethanols, xylenes, and paraffins in a Tissue-Tek VIP automatic processor (Sakura, Torrance, Calif., USA), and 5-μm sections were cut using a Microm HM355 paraffin microtome (Thermo Fisher Scientific, Waltham, Mass., USA) and stained with hematoxylin and eosin (H&E) stain. Images of stained sections were captured by a Leica CTR6000 microscope attached to a CCD camera (Micropublisher 5.0 RTV, Qimaging Surray BC, Canada).
The effectiveness of the retinylamine derivatives on preventing light-induced retinal degeneration was tested in four-week old Abca4^−/−Rdh8^−/− mice according to the experimental scheme depicted in FIG. 1. After the mice were dark-adapted for 48 h, the drugs were gavaged at a dose 0.875 μmol/per mouse, which was selected based on the half protection dose for retinylamine after a dosing experiment, FIG. 2. Retinylamine was tested as a control at the same dose. […] Retinal integrity was assessed using optical coherence tomography (OCT). […] The mice without any treatment had photoreceptor cells completely destroyed after light illumination, and were used as a negative control. The retinal integrity was determined based on the thickness of outer nuclear layer (ONL) of the retinas measured from the OCT images. Reduced ONL thickness signifies the decreasing number of photoreceptors and retinal degeneration.

[2] = Biodistribution of N-retinylamides and retinylamine derivatives in liver and eye after oral gavage; type: in vivo, mouse; conditions: for original drug detected in the eye: 2 h and 16 h; for metabolism in the eye: conclusion from biodistribution at 2 h and 16 h
Procedure: Female C57BL mice (4-week-old) were randomly divided into seven groups, six treated groups and one control group. Free Ret-NH2 (3.5 μmol per mouse, dissolved in DMSO and dispersed in vegetable oil) or retinylamine derivatives (Ret-Gly, Ret-L-Val-Gly, Ret-L-Phe, Ret-L-Leu, Ret-L-Val, 3.5 μmol per mouse, dissolved in DMSO and dispersed in vegetable oil) was administered by gastric gavage, control group was only gavaged vegetable oil. Then at each predetermined time point (2 and 16 h after drug administration), 3 mice were sacrificed. The liver and eye balls were collected to determine tissue N-retinylamide content for pharmacokinetic analysis. A portion of the liver tissue (0.3-0.5 g) was weighed, homogenized in 2 mL 1:1 ethanol:PBS solution and the eye balls were similarly processed (eye balls were combined for 3 mice). N-Retinylamides were extracted in 4 mL hexane, concentrated, and reconstituted to a 300 μL volume for liver (200 μL for eye). Normal-phase HPLC (Agilent-Zorbax SIL; 5 μm; 4.5×250 mm; flow rate of 1.4 mL/min; 80:20 hexane:ethyl acetate (v:v); detection at 325 nm) was utilized to determine N-retinylamide concentration in these tissues.
Female C57BL mice (4-week-old) were randomly divided into seven groups, six treated groups and one control group. Free Ret-NH2 (3.5 μmol per mouse, dissolved in DMSO and dispersed in vegetable oil) or retinylamine derivative (Ret-Gly, Ret-L-Val-Gly, Ret-L-Phe, Ret-L-Leu, Ret-L-Val, 3.5 μmol per mouse, dissolved in DMSO and dispersed in vegetable oil) was administered by gastric gavage, control group was only gavaged vegetable oil. Then at each predetermined time point (2 and 16 h after drug administration), 3 mice were sacrificed. The liver and eye balls were collected to determine tissue drug content for pharmacokinetic analysis. A portion of the liver tissue (0.3-0.5 g) was weighed, homogenized in 2 mL 1:1 ethanol:PBS solution and the eye balls were similarly processed. Retinylamine or its derivative was extracted in 4 mL ethyl acetate, concentrated, and reconstituted to a 300 μL volume for liver (200 μL for eye). Reverse-phase HPLC (analytical C18 reverse column; 5 μm; 250 mm×4.6 mm; flow rate of 1.0 mL/min; 60:40 acetonitrile:H2O (v:v) with 0.05% trifluoroacetic acid; detection at 325 nm) was utilized to determine retinylamine or its derivative in these tissues. […]
No N-retinylamides were detected in the eye at 2 h for all treated mice. The concentration of N-retinylamides in the liver of all treated mice increased at 16 h post-treatment. […] The concentrations of the original drugs were also determined in the liver and eye at 2 h and 16 h (FIGS. 7C, D). All tested drugs, including Ret-NH2, were detected in liver and their concentrations decreased from 2 h to 16 h.

[3] = 3.5 μmol per mouse oral, C57BL mice, 16 h

Compound	protection against light-induced retinal degeneration (ONL thickness from OCT) [1]	original drug detected in the eye ([2]; 3.5 μmol per mouse oral)	also measured
CC1=C(/C=C/C(C)=C/C=C/C(C)=C/CNC(=O)[C@H](C)N)C(C)(C)CCC1 [3a, (S)-2-amino-N-((2E,4E,6E,8E)-3,7-dimethyl-9-(2,6,6-trimethylcyclohex-1-en-1-yl)nona-2,4,6,8-tetraen-1-yl)propanamide]	little protecting efficacy		
CC[C@H](C)[C@H](N)C(=O)NC/C=C(C)/C=C/C=C(C)/C=C/C1=C(C)CCCC1(C)C [3c, (2S,3S)-2-amino-N-((2E,4E,6E,8E)-3,7-dimethyl-9-(2,6,6-trimethylcyclohex-1-en-1-yl)nona-2,4,6,8-tetraen-1-yl)-3-methylpentanamide]	little protecting efficacy		
CC1=C(/C=C/C(C)=C/C=C/C(C)=C/CNC(=O)[C@@H](C)N)C(C)(C)CCC1 [3f, (R)-2-amino-N-((2E,4E,6E,8E)-3,7-dimethyl-9-(2,6,6-trimethylcyclohex-1-en-1-yl)nona-2,4,6,8-tetraen-1-yl)propanamide]	little protecting efficacy		
CC1=C(/C=C/C(C)=C/C=C/C(C)=C/CNC(=O)[C@H](N)C(C)C)C(C)(C)CCC1 [3g, (R)-2-amino-N-((2E,4E,6E,8E)-3,7-dimethyl-9-(2,6,6-trimethylcyclohex-1-en-1-yl)nona-2,4,6,8-tetraen-1-yl)-3-methylbutanamide]	little protecting efficacy		
CC1=C(/C=C/C(C)=C/C=C/C(C)=C/CNC(=O)CCN)C(C)(C)CCC1 [3h, 3-amino-N-((2E,4E,6E,8E)-3,7-dimethyl-9-(2,6,6-trimethylcyclohex-1-en-1-yl)nona-2,4,6,8-tetraen-1-yl)propanamide]	little protecting efficacy		
CC1=C(/C=C/C(C)=C/C=C/C(C)=C/CNC(=O)[C@@H]2CCCN2)C(C)(C)CCC1 [3i, (S)—N-((2E,4E,6E,8E)-3,7-dimethyl-9-(2,6,6-trimethylcyclohex-1-en-1-yl)nona-2,4,6,8-tetraen-1-yl)pyrrolidine-2-carboxamide]	little protecting efficacy		
CC1=C(/C=C/C(C)=C/C=C/C(C)=C/CNC(=O)CN)C(C)(C)CCC1 [RG, 2-amino-N-((2E,4E,6E,8E)-3,7-dimethyl-9-(2,6,6-trimethylcyclohex-1-en-1-yl)nona-2,4,6,8-tetraen-1-yl)acetamide]	significant improvement on preventing light-induced retinopathy over retinyl amine; also recorded: relatively high protecting effect	detected in eyes at both 2 h and 16 h at a relatively high concentration	liver concentration of N-retinylamides [2, 3]: lower liver concentration of N-retinylamides than RF and RL; protection against light-induced retinal degeneration (ONL thickness from OCT) ([1]; listed as glycyl): significantly better protection than Ret-NH2 and other derivatives
CC1=C(/C=C/C(C)=C/C=C/C(C)=C/CNC(=O)CNC(=O)[C@@H](N)C(C)C)C(C)(C)CCC1 [RGV, (S)-2-amino-N-(2-(((2E,4E,6E,8E)-3,7-dimethyl-9-(2,6,6-trimethylcyclohex-1-en-1-yl)nona-2,4,6,8-tetraen-1-yl)amino)-2-oxoethyl)-3-methylbutanamide]	significant improvement on preventing light-induced retinopathy over retinyl amine		
CC1=C(/C=C/C(C)=C/C=C/C(C)=C/CNC(=O)[C@@H](N)CC(C)C)C(C)(C)CCC1 [RL, (S)-2-amino-N-((2E,4E,6E,8E)-3,7-dimethyl-9-(2,6,6-trimethylcyclohex-1-en-1-yl)nona-2,4,6,8-tetraen-1-yl)-4-methylpentanamide]	low protecting effect	only detected at 2 h	metabolism in the eye [2]: rapidly metabolized into inactive N-retinylamides in the eye; protection against light-induced retinal degeneration (ONL thickness from OCT) ([1]; listed as L-leucyl): little protecting efficacy
CC1=C(/C=C/C(C)=C/C=C/C(C)=C/CNC(=O)[C@@H](N)C(C)C)C(C)(C)CCC1 [RV, (S)-2-amino-N-((2E,4E,6E,8E)-3,7-dimethyl-9-(2,6,6-trimethylcyclohex-1-en-1-yl)nona-2,4,6,8-tetraen-1-yl)-3-methylbutanamide]	relatively high protecting effect	detected in eyes at both 2 h and 16 h at a relatively high concentration	N-retinylamides in the eye [2, 3]: no detectable N-retinylamides in the eye; liver concentration of N-retinylamides [2, 3]: lower liver concentration of N-retinylamides than RF and RL; metabolism in the eye [2]: stable against metabolism and had prolonged presence in the eye as intact drug molecules
